From ChEMBL document CHEMBL1141954, “Indole-2-carboxamidines as novel NR2B selective NMDA receptor antagonists” (Bioorg Med Chem Lett, 2005)

Key:
Glutamate NMDA receptor [1] = assay: Inhibition of NMDA-evoked intracellular calcium increase in rat cortical cells; format: functional, cell-based
Mus musculus = species on record: Mus musculus; assay: Oral efficacy in mice formalin test; format: functional
[2] = target: Glutamate NMDA receptor; GRIN1/GRIN2A (Homo sapiens) (UniProt Q05586+Q12879); assay: Inhibitory activity against NR1A expressed in combination with NR2A at 15 uM
Glutamate NMDA receptor [3] = assay: Inhibition of NMDA-evoked intracellular calcium increase in rat cortical cell at 1 uM; format: functional, cell-based

SMILES: COc1ccc2[nH]c(C(=N)NCc3c(OC)cccc3OC)cc2c1
- IC50 (Glutamate NMDA receptor [1]): 26 nM

SMILES: COc1ccccc1CNC(=N)/C=C/c1ccccc1
- IC50 (Glutamate NMDA receptor [1]): 6.6 nM

SMILES: COc1ccccc1C/N=C(\N)c1cc2ccccc2[nH]1.Cl
- IC50 (Glutamate NMDA receptor [1]): 35 nM
- ED50 (Mus musculus): 15 mg/kg

SMILES: COc1ccccc1C/N=C(\N)c1cc2cc(F)ccc2[nH]1
- IC50 (Glutamate NMDA receptor [1]): 33 nM

SMILES: Cc1ccccc1C/N=C(\N)c1cc2ccccc2[nH]1
- IC50 (Glutamate NMDA receptor [1]): 170 nM

SMILES: COc1cccc(OC)c1C/N=C(\N)c1cc2cc(Cl)ccc2[nH]1
- IC50 (Glutamate NMDA receptor [1]): 69 nM

SMILES: COc1cccc(OC)c1C/N=C(\N)c1cc2ccccc2[nH]1
- inhibition [2]: 32.1%
- IC50 (Glutamate NMDA receptor [1]): 5.4 nM

SMILES: COc1ccccc1C/N=C(\N)c1cc2cc(Cl)ccc2[nH]1
- IC50 (Glutamate NMDA receptor [1]): 64 nM

SMILES: COc1cccc(C/N=C(\N)c2cc3ccccc3[nH]2)c1.Cl
- inhibition (Glutamate NMDA receptor [3]): 57%

SMILES: COc1ccc2[nH]c(C(=N)NCc3ccccc3OC)cc2c1
- IC50 (Glutamate NMDA receptor [1]): 19 nM

SMILES: N=C(NCc1ccccc1F)c1cc2ccccc2[nH]1
- IC50 (Glutamate NMDA receptor [1]): 232 nM

SMILES: Cl.N=C(NCc1ccccc1)c1cc2ccccc2[nH]1
- inhibition (Glutamate NMDA receptor [3]): 32.8%

SMILES: COc1ccc(C/N=C(\N)c2cc3ccccc3[nH]2)cc1.Cl
- inhibition (Glutamate NMDA receptor [3]): 10.5%

SMILES: COc1cccc(OC)c1C/N=C(\N)c1cc2cc(F)ccc2[nH]1
- IC50 (Glutamate NMDA receptor [1]): 17 nM

SMILES: N=C(NCc1c(F)cccc1F)c1cc2ccccc2[nH]1
- IC50 (Glutamate NMDA receptor [1]): 143 nM

SMILES: N=C(NCc1cc(Cl)cc(Cl)c1)c1cc2ccccc2[nH]1
- IC50 (Glutamate NMDA receptor [1]): 159 nM
